Data reported in patent US20080280920A1, “Plasminogen Activator Inhibitor-1 Inhibitors” (priority 2005, published 2008).

Assays:
[1] = target: T1, wildtype human PAI-1 (Homo sapiens, UniProt P05121); test: PAI-1/uPA assay (residual uPA activity, fluorescent substrate SpectroFluor); format: biochemical; details: for Conc. of compound required for PAI-1 inhibition (result in words): within the concentration range tested
T1 construct: purchased Molecular Innovations Lot# HWT-804
Protocol: Principle: The assay is based on using a fluorescent substrate (SpectroFluor) to measure residual uPA following inhibition of uPA by PAI-1. PAI-1 used in the assay is pre-treated in the presence of increasing concentrations of the lead compounds to screen for any inhibitory effects on PAI-1. Method: This assay was performed in 96 well microtiter plates. The concentrations of uPA (8 nM) and PAI-1 (6 nM) used in this assay were carefully optimized when using the fluorescent substrate, SpectroFluor™. Stock solutions (10 mM) of all lead compounds were prepared fresh in DMSO. […] 20 μl of 6 nM wildtype human PAI-1 (Molecular Innovations, Lot# HWT-804) was incubated for 15-20 minutes at room temperature in 96 well microtiter plates either with buffer, (50 mM HEPES, 150 mM NaCl, 0.05% Tween-20, 1% BSA, pH 6.6) or various concentrations (10 nM to 100 μM final concentration) of lead compounds in a total volume of 80 μl. A 20 μl aliquot of 8 nM uPA (HMW) solution in 0.05M Tris Buffered™ saline (TBS), pH 8.4 was added to each well and the mixture incubated for an additional 5 minutes at RT. The proteolytic reaction was initiated by addition of 50 μl of 0.1 mM SpectroFluor (Spectrozyme UK Fluorogenic substrate) to each well. The kinetics of the free chromophore, 7-amino-4-methylcoumarin (AMC) released in the course of peptide cleavage by the protease, uPA, was monitored for 30 minutes at 37° C. on a spectrofluorometric microplate reader with an excitation wavelength of 360 nm and emission wavelength of 440 nm. Kinetic data regarding the rate of substrate cleavage by uPA was acquired with Softmax PrO™ software. The difference between the residual uPA activity in the presence or absence of untreated PAI-1, at the molar ratio used, was considered as the “total” PAI-1 activity (100%). The inhibition of uPA by PAI-1 treated with lead compounds was expressed as a percentage of the initial activity of untreated PAI-1. Controls were performed during each experiment to ensure the nearly complete inhibition of uPA by untreated PAI-1 and also to ensure the absence of any direct effect of the lead compounds on uPA alone or on SpectroFluor.

[2] = tested on: 60 different human cancer cell lines; test: NCI in vitro anticancer screen (whole panel); format: cell-based; details: for growth and proliferation of human primary cancer cell-lines (in words): NCI screen, 48 h
[3] = tested on: HL-60(TB); test: NCI anticancer screen, HL-60(TB); format: cell-based, human; details: Leukemia, 48 h
[4] = tested on: EKVX; test: NCI anticancer screen, EKVX; format: cell-based, human; details: Non-Small Cell Lung, 48 h
[5] = tested on: NCI-H226; test: NCI anticancer screen, NCI-H226; format: cell-based, human; details: NCI-H226, Non-Small Cell Lung, 48 h
[6] = tested on: NCI-H23; test: NCI anticancer screen, NCI-H23; format: cell-based, human; details: NCI-H23, Non-Small Cell Lung, 48 h
[7] = tested on: COLO 205; test: NCI anticancer screen, COLO 205; format: cell-based, human; details: COLO 205, Colon, 48 h
[8] = tested on: HCT-116; test: NCI anticancer screen, HCT-116; format: cell-based, human; details: HCT-116, Colon, 48 h
[9] = tested on: SF-295; test: NCI anticancer screen, SF-295; format: cell-based, human; details: SF-295, CNS, 48 h
[10] = tested on: SF-539; test: NCI anticancer screen, SF-539; format: cell-based, human; details: SF-539, CNS, 48 h
[11] = tested on: U251; test: NCI anticancer screen, U251; format: cell-based, human; details: U251, CNS, 48 h
[12] = tested on: LOX IMVI; test: NCI anticancer screen, LOX IMVI; format: cell-based, human; details: Melanoma, 48 h
[13] = tested on: SK-MEL-28; test: NCI anticancer screen, SK-MEL-28; format: cell-based, human; details: SK-MEL-28, Melanoma, 48 h
[14] = tested on: SK-MEL-5; test: NCI anticancer screen, SK-MEL-5; format: cell-based, human; details: SK-MEL-5, Melanoma, 48 h
[15] = tested on: UACC-62; test: NCI anticancer screen, UACC-62; format: cell-based, human; details: UACC-62, Melanoma, 48 h
[16] = tested on: ACHN; test: NCI anticancer screen, ACHN; format: cell-based, human; details: Renal, 48 h
[17] = tested on: RXF 393; test: NCI anticancer screen, RXF 393; format: cell-based, human; details: RXF 393, Renal, 48 h
[18] = tested on: TK-10; test: NCI anticancer screen, TK-10; format: cell-based, human; details: TK-10, Renal, 48 h
[19] = tested on: DU-145; test: NCI anticancer screen, DU-145; format: cell-based, human; details: DU-145, Prostate, 48 h
[20] = tested on: MDA-MB-231/ATCC; test: NCI anticancer screen, MDA-MB-231/ATCC; format: cell-based, human; details: Breast, 48 h
[21] = tested on: MDA-MB-435; test: NCI anticancer screen, MDA-MB-435; format: cell-based, human; details: MDA-MB-435, Breast, 48 h
[22] = tested on: T-47D; test: NCI anticancer screen, T-47D; format: cell-based, human; details: Breast, 48 h
[23] = tested on: SK-MEL-2; test: NCI anticancer screen, SK-MEL-2; format: cell-based, human; details: Homo sapiens; SK-MEL-2, Melanoma, 48 h
[24] = Homo sapiens, read-out: LC50 (the source's name)

T1 sequence (P05121 24-402): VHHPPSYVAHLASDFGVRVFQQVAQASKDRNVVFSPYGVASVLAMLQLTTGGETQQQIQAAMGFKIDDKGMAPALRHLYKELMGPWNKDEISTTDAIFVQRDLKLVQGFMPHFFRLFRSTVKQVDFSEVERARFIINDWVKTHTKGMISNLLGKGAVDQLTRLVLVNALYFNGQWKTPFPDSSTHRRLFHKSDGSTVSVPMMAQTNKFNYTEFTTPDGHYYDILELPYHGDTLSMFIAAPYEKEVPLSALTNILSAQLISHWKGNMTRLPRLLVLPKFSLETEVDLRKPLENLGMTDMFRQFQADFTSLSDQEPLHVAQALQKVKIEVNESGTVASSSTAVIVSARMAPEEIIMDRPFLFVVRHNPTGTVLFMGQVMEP

For `COc1cc(CNCC2CCN(C(=O)OC(C)(C)C)CC2)cc(CN2CCN(c3ccccn3)CC2)c1O` [Compound Q012132, 2-Methoxy-4-({[(N-t-butyloxycarbonylpiperidin-4-yl)methyl]amino}methyl)-6-[(4-pyridin-2-ylpiperazin-1-yl)methyl]phenol], the “Conc. of compound required for PAI-1 inhibition (result in words)” value [1] was “No inhibition”, the “growth and proliferation of human primary cancer cell-lines (in words)” value (from here on “growth and proliferation”) [2] was “inhibited growth and proliferation” and the “cytostatic / cytotoxic effects on human cancer cell-lines (in words)” value ([2]; low micromolar concentrations, leukemia, melanoma, colon and central nervous system cell-lines) was “cytostatic and cytotoxic effects”. The GI50 ([3]; Homo sapiens) was 14.8 µM, the CC50 [3, 24] was 72.6 µM and the TGI [3] was 32.8 µM. The GI50 ([4]; Homo sapiens) was 91.2 µM, the CC50 [4, 24] was over 100 µM and the TGI [4] was over 100 µM. The GI50 ([5]; Homo sapiens) was 65.5 µM, the LC50 (concentration giving 50% net cell kill) ([5]; Homo sapiens) was over 100 µM and the TGI [5] was over 100 µM. For the same compound, the GI50 ([6]; Homo sapiens) was 29.6 µM, the CC50 [6, 24] was over 100 µM and the TGI [6] was over 100 µM. It also gave a TGI [7] of 34.8 µM, a GI50 ([7]; Homo sapiens) of 16.8 µM and a CC50 [7, 24] of 72.1 µM. The TGI [8] was 22.6 µM, the GI50 ([8]; Homo sapiens) was 10.8 µM and the LC50 (50% lethal concentration) ([8]; Homo sapiens) was 47.6 µM. It also gave a GI50 ([9]; Homo sapiens) of 19.3 µM, a CC50 [9, 24] of 89 µM and a TGI [9] of 41.4 µM. For the same compound, the GI50 ([10]; Homo sapiens) was 14.6 µM, the CC50 [10, 24] was 54.6 µM and the TGI [10] was 28.2 µM. It also gave a GI50 ([11]; Homo sapiens, U-251) of 15.1 µM, a CC50 ([11]; Homo sapiens, U-251, read-out: LC50 (the source's name)) of 55.8 µM and a TGI [11] of 29.1 µM. It also gave a GI50 ([12]; Homo sapiens) of 14.1 µM, an LC50 (concentration giving 50% net cell kill) ([12]; Homo sapiens) of 55.1 µM and a TGI [12] of 27.9 µM. For the same compound, the GI50 ([13]; Homo sapiens) was 16.8 µM, the CC50 [13, 24] was 75.5 µM and the TGI [13] was 35.6 µM. It also gave a GI50 ([14]; Homo sapiens) of 13.1 µM, a CC50 [14, 24] of 51.5 µM and a TGI [14] of 26.0 µM. The GI50 ([15]; Homo sapiens) was 17.2 µM, the CC50 [15, 24] was 64.3 µM and the TGI [15] was 33.3 µM. It also gave a GI50 ([16]; Homo sapiens) of 21 µM, a CC50 [16, 24] of over 100 µM and a TGI [16] of 48.5 µM. For the same compound, the GI50 ([17]; Homo sapiens) was 13.6 µM, the CC50 [17, 24] was 67.2 µM and the TGI [17] was 30.2 µM. For the same compound, the GI50 ([18]; Homo sapiens) was 19.5 µM, the CC50 [18, 24] was 86.5 µM and the TGI [18] was 41.0 µM. For the same compound, the TGI [19] was over 100 µM, the GI50 ([19]; Homo sapiens) was 38.8 µM and the CC50 [19, 24] was over 100 µM. It also gave a TGI [20] of 41.0 µM, a GI50 ([20]; Homo sapiens) of 17.8 µM and a CC50 [20, 24] of 94.3 µM. It also gave a GI50 ([21]; Homo sapiens) of 18.2 µM, a CC50 [21, 24] of 73.1 µM and a TGI [21] of 36.4 µM. For the same compound, the TGI [22] was 44.4 µM, the GI50 ([22]; Homo sapiens, T47D) was 16.2 µM and the CC50 ([22]; Homo sapiens, T47D, read-out: LC50 (the source's name)) was over 100 µM.
`CCOC(=O)[C@H](Cc1ccccc1)NCc1cc(CN2CCN(c3ccccn3)CC2)c(O)c(OC)c1` [Compound Q012147T] was tested, and the “Conc. of compound required for PAI-1 inhibition (result in words)” value [1] was “No inhibition”, the “growth and proliferation” value [2] was “inhibited growth and proliferation” and the GI50 ([3]; Homo sapiens) was 37.5 µM. The GI50 ([4]; Homo sapiens) was over 100 µM, the GI50 ([5]; Homo sapiens) was over 100 µM and the GI50 ([6]; Homo sapiens) was 55.9 µM. The GI50 ([7]; Homo sapiens) was over 100 µM, the GI50 ([8]; Homo sapiens) was 34.4 µM and the GI50 ([9]; Homo sapiens) was over 100 µM. For the same compound, the GI50 ([10]; Homo sapiens) was 73.4 µM, the GI50 ([11]; Homo sapiens, U-251) was 61.9 µM and the GI50 ([12]; Homo sapiens) was over 100 µM. For the same compound, the GI50 [23] was over 100 µM, the GI50 ([13]; Homo sapiens) was over 100 µM and the GI50 ([14]; Homo sapiens) was 18.7 µM. It also gave a GI50 ([15]; Homo sapiens) of over 100 µM, a GI50 ([16]; Homo sapiens) of 78.2 µM and a GI50 ([17]; Homo sapiens) of 76.5 µM. The GI50 ([18]; Homo sapiens) was 83 µM, the GI50 ([19]; Homo sapiens) was over 100 µM and the GI50 ([20]; Homo sapiens) was over 100 µM. It also gave a GI50 ([21]; Homo sapiens) of 83.2 µM and a GI50 ([22]; Homo sapiens, T47D) of 33.5 µM.
`CC(C)(C)OC(=O)Nc1ccc(O)c(C(=O)NCCOC(=O)NCCNC(=O)c2cc(OCc3ccccc3)ccc2OCc2ccccc2)c1` [Compound Q012052, 2-[5-(BOC-amino)-2-hydroxybenzoylamino]ethyl 2-[2,5-bis-(benzyl-oxy)benzoylamino]ethylcarbamate] was tested, and the “Percent PAI-1 inhibition” value ([1]; at the concentration given, percent of activity of untreated PAI-1) was 45, the “Conc. of compound required for PAI-1 inhibition” value ([1]; concentration giving the percent inhibition, 6 nM PAI-1, 8 nM uPA) was 50 nM and the “growth and proliferation” value [2] was “inhibited growth and proliferation”. For the same compound, the GI50 ([3]; Homo sapiens) was over 100 µM, the GI50 ([4]; Homo sapiens) was 35.1 µM and the GI50 ([5]; Homo sapiens) was over 100 µM. For the same compound, the GI50 ([6]; Homo sapiens) was over 100 µM, the GI50 ([7]; Homo sapiens) was 8.97 µM and the GI50 ([8]; Homo sapiens) was over 100 µM. For the same compound, the GI50 ([9]; Homo sapiens) was 21.9 µM, the GI50 ([10]; Homo sapiens) was over 100 µM and the GI50 ([11]; Homo sapiens, U-251) was over 100 µM. It also gave a GI50 ([12]; Homo sapiens) of over 100 µM, a GI50 [23] of over 100 µM and a GI50 ([13]; Homo sapiens) of over 100 µM. The GI50 ([14]; Homo sapiens) was over 100 µM, the GI50 ([15]; Homo sapiens) was over 100 µM and the GI50 ([16]; Homo sapiens) was over 100 µM. The GI50 ([17]; Homo sapiens) was over 100 µM, the GI50 ([18]; Homo sapiens) was over 100 µM and the GI50 ([19]; Homo sapiens) was over 100 µM. The GI50 ([20]; Homo sapiens) was over 100 µM, the GI50 ([21]; Homo sapiens) was over 100 µM and the GI50 ([22]; Homo sapiens, T47D) was 5.05 µM.
